From patent publication US20230212517A1, “METHODS FOR GENERATING HEMATOPOIETIC STEM CELLS” (The Brigham and Women's Hospital, Inc., priority 2018, published 2023)

Key:
[1] = tested on: E11.5 AGM cells; experiment: RNA-sequencing / whole transcriptome analyses of treated E11.5 AGM cells; format: cell-based, mouse; conditions: Venn comparison of up-regulated genes, endothelial-to-HSC transition
Protocol: RNA-sequencing analyses were performed to measure gene expression patterns in mouse AGM treated with cyclic strain or pharmacological modulators. Using computational algorithms, hierarchical clustering was performed of differentially expressed genes as well as measured their overrepresented biological processes and pathways. Gene expression clusters of differentially expressed genes were analyzed and their mean expression level across cell populations compared. Next, Venn comparison of up- and down-genes was constructed to analyze candidate(s) important for cyclic strain- or pharmacological modulator(s)-mediated the endothelial-to-HSC transition. Furthermore, Dnmt3b and Dnmt3a protein expressions were analyzed in nuclear fractions of mouse AGM cells using EPIQUIK methyltransferase assay kits. Data are presented as mean±s.d. unless otherwise noted. Statistical analyses were performed by paired or un-paired Student's t-tests. […]
Total RNA from E11.5 mouse AGM explant cultures was isolated (control, stretch, Yoda1 and 4αPDD conditions) with the RNAEASY MiniKit (QIAGEN). […] We mapped our sequenced read fragments to the mouse reference genome GRCm38 (ENSEMBL release 69) using the Genomic Short-Read Nucleotide Alignment program (version 2012 Jul. 20). […] Gene expression clusters of differentially expressed genes were analyzed and their mean expression level across cell populations compared. […]

[2] = tested on: E11.5 AGM-derived HSCs; experiment: Serial transplantation of treated E11.5 AGM-derived HSCs into lethally irradiated mice; format: in vivo, mouse; conditions: for multi-lineage reconstitution (myeloid, T-cells, B-cells) in primary transplant / peripheral blood chimerism / engraftment in primary transplant: primary recipients; for multi-lineage reconstitution (myeloid, T-cells, B-cells) in primary transplant: week 16; for peripheral blood chimerism / engraftment in primary transplant: weeks 8-16, three embryo equivalent treated AGM donor cells
Protocol: Pulsating blood vessels like conditions were stimulated in vitro using FLEXCELL FX-4000 cell stretching bioreactor machine. To analyze roles of pharmacological targets in regulating the endothelial-to-HSC transition, mouse embryo-derived AGM or whole mouse embryo were exposed ex vivo with biomechanical stretching, chemicals, or drugs. Next, hematopoietic colony formation assays were performed by incubating mouse AGM-derived cells in StemCell M3434 media for seven days. Serial transplantation of AGM-derived HSCs in lethally irradiated SJL mice were performed. The stem cell frequency upon biomechanical stretching was analyzed using a limiting dilution assay. To characterize properties of AGM-HSC-derived blood cells in primary transplants, percentage chimerism and reconstitution was measured using FACS, globin transcripts were analyzed using quantitative reverse transcriptase-PCR, myeloperoxidase amount was measured using PICOKINE ELISA kit, TCR-β rearrangement was analyzed using PCR for TCR-β locus, pre-immune IG detection was analyzed using Thermo-Fisher Mouse Ig Isotyping kit, and delayed-type hypersensitivity was analyzed by injecting sheep RBC (Rockland Immunochemicals) in the footpad of pre-sensitized mice.
For primary transplantation, three-embryo equivalents of untreated or treated (cyclic strain or 25 μM Yoda1) AGMs plus splenic helper cells (˜500,000 per mouse) were injected into lethally irradiated (split dose […]) Cd45.1 (SJL) mice by retro-orbital injection. For secondary and tertiary transplants, the bone marrow was isolated (legs, arm, pelvic bone, spine, sternum) from the transplanted mice. The bone marrow was loaded on a FICOLL gradient (HISTOPAQUE-1083 solution, Sigma-Aldrich), and the cells from the buffy coat incubated with biotin-conjugated lineage antibodies and streptavidin microbeads (Miltenyi Biotec). Next, the lineage negative (Lin) cells were separated with MACS LS Columns (Miltenyi Biotec), and the donor Cd45.2 Lin^−Sca1^+-Kit^+ (LSK) cells sorted with a MoFlo Beckman Coulter sorter. Subsequently, the sorted Cd45.2 LSK cells were mixed with Cd45.1 splenic helper cells (˜500,000 per mouse) and transplanted into Cd45.1 irradiated (split dose […]) SJL mice by retro-orbital injection.
AGM cells from explants and ex vivo were stained with Sca1-Pacific-Blue (E13-161.7, Biolegend) and Flk1-APC-Cy7 (Avas 12α1, BD). Blood from transplanted mice was stained with the following antibody cocktail: Cd45.2-Pacific-Blue (104, Biolegend), Cd45.1-FITC (A20, Biolegend), Cd3-PE (145-2C11, Biolegend), Cd8-PE (53-6.7, Biolegend), Mac1-APC (M1/70, Biolegend), Gr1-APC (108412, Biolegend), Cd19-APC-CY7 (6D5, Biolegend), B220-APC-CY7 (RA3-6B2, Biolegend).
Cells from the bone marrow, spleen, thymus, and lymph node from mice transplanted with E11.5 AGM cells were stained with the following antibody panels: Bone marrow LT-HSC: Cd45.2-FITC (104, Biolegend), Ter119-Biotin (TER-119 BD), Gr1-Biotin (RB6-8C5, BD), Cd5-Biotin (53-7.3, BD), Cd8a-Biotin (53-6.7, BD), B220-Biotin (RA3-6B2, BD), Streptavidin-Pacific Blue (eBioscience), Sca1-PE-CY7 (D7, eBioscience), cKit-APC (2B8, eBioscience), Cd48-APC-CY7 (HM48-1, BD), Cd150-PE-CY5 (TC15-12F12.2, Biolegend). Erythroid development RI-RV in bone marrow: Cd45.2-Pacific-Blue (104, Biolegend), Cd45.1-FITC (A20, Biolegend), Ter119-APC (TER-119, Biolegend), Cd71-PE (R17217, eBioscience). Bone marrow granulocytes: Cd45.2-Pacific-Blue (104, Biolegend), Cd45.1-FITC (A20, Biolegend), Gr1-PE, (RB6-8C5, BD); Mac1-APC (M1/70, Biolegend). Spleen, thymus and lymph nodes T Cells: Cd45.2-Pacific-Blue (104, Biolegend), Cd45.1-FITC (A20, Biolegend), Cd8-PE (53-6.7, Biolegend), Cd4-APC (RM4-5, eBioscience). Spleen, thymus and lymph node myeloid and B cells: Cd45.2-Pacific-Blue (104, Biolegend), Cd45.1-FITC (A20, Biolegend), Cd19-APC-CY7 (6D5, Biolegend), Mac1-APC (M1/70, Biolegend). We performed all FACS analyses on a BD Fortessa cytometer. […]

In the case of `Clc1cccc(Cl)c1CSc1nnc(-c2cnccn2)s1` [Yoda1, 2-[5-[[(2,6-Dichlorophenyl)methyl]thio]-1,3,4-thiadiazol-2-yl]-pyrazine], the Dnmt3b transcript expression [1] is reported as “specifically stimulate”, the Gimap6 transcript expression [1] is reported as “specifically stimulate” and the “multi-lineage reconstitution (myeloid, T-cells, B-cells) in primary transplant” value [2] is reported as “stimulates the formation of HSCs that reconstitute to the blood”. For the same compound, the “multi-lineage reconstitution (myeloid, T-cells, B-cells) in primary transplant” value ([2]; listed as Piezo1 activator) was “normal multi-lineage reconstitution”, the “peripheral blood chimerism / engraftment in primary transplant” value [2] was “stimulates the formation of HSCs” and the “peripheral blood chimerism / engraftment in primary transplant” value ([2]; listed as Piezo1 activator) was “higher engraftment”. The “multi-lineage reconstitution in secondary transplant” value ([2]; secondary recipients, week 12) was “produces HSCs that can serially reconstitute to the blood”, the “peripheral blood chimerism in secondary transplant” value ([2]; secondary recipients, weeks 8-12, 2000 sorted Lin-Sca1+c-Kit+ HSPCs) was “produces HSCs that have serial engraftment and self-renewal capacities” and the “amount of Lin-Sca1+c-Kit+Cd48-Cd150+ HSCs in bone marrow of primary recipients” value ([2]; vs. control AGM) was “two- to three-times higher amount”.
